molecular target: T1, human M4 muscarinic acetylcholine receptor (Homo sapiens, UniProt P08173); test: human FLIPR-based M4 PAM assay (Ca2+ mobilization, CHO-K1 cells with human M4 receptor and Gαqi5); assay type: cell-based; conditions: acetylcholine at 20% of maximum response, read-out: M4 PAM IP
T1 construct: expressed in transfected cells; host or cells: CHO-K1
T1 sequence (P08173 1-479): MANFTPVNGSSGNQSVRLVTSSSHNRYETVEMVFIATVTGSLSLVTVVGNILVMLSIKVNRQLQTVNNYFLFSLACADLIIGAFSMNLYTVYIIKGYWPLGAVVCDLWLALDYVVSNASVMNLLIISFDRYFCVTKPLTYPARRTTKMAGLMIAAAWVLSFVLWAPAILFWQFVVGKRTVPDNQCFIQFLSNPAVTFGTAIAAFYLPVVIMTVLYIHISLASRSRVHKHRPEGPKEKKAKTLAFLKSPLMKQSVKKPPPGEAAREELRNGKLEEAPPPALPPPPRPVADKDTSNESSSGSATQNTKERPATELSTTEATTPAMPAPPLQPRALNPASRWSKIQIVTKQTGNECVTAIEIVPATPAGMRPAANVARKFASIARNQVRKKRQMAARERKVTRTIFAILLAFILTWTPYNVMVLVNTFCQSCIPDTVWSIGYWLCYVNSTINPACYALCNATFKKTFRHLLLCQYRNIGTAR
In short: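 CHO-K1 cells stably expressing human M4 and chimeric Gαqi5 were dye-loaded ~1 h at 37 °C and read for Ca2+ fluorescence. Compound followed by acetylcholine at an EC20 (sometimes an EC70 third addition); inflection point from a 4-parameter logistic fit.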

Row | Structure (SMILES) | EC50 [nM]
1 | CCOc1ccc(OC2CCN(c3nc4c(cc3C)C(=O)N(CCO)C4)CC2)cn1 [Example 254, 2-(4-((6-ethoxypyridin-3-yl)oxy)piperidin-1-yl)-6-(2-hydroxyethyl)-3-methyl-6,7-dihydro-5H-pyrrolo[3,4-b]pyridin-5-one] | 69
2 | Cc1cc2c(nc1N1CC[C@@H](Oc3ccc4c(c3)COC4)[C@@H](F)C1)CN(CCO)C2=O [Example 255, 2-((3S,4R)-4-((1,3-dihydro-2-benzofuran-5-yl)oxy)-3-fluoropiperidin-1-yl)-6-(2-hydroxyethyl)-3-methyl-6,7-dihydro-5H-pyrrolo[3,4-b]pyridin-5-one] | 29
3 | COc1ccc(OC2CCN(c3nc4c(cc3C)C(=O)N(CC3COC3)C4CC3COC3)CC2)cn1 (stereo not shown) [Example 255A, 2-(4-((6-methoxypyridin-3-yl)oxy)piperidin-1-yl)-3-methyl-6,7-bis(oxetan-3-ylmethyl)-6,7-dihydro-5H-pyrrolo[3,4-b]pyridin-5-one] | 803
4 | COC(=O)CN1Cc2nc(N3CCC(OCC4(C)CC4)CC3)c(C)c(C)c2C1=O [Example 256, methyl 2-(3,4-dimethyl-2-(4-((1-methylcyclopropyl)methoxy)piperidin-1-yl)-5-oxo-5,7-dihydro-6H-pyrrolo[3,4-b]pyridin-6-yl)acetate] | 85
5 | Cc1cc2c(nc1N1CC[C@@H](Oc3ccc4c(c3)COC4)[C@H](F)C1)CN(CCO)C2=O [Example 257, 2-((3R,4R)-4-((1,3-dihydro-2-benzofuran-5-yl)oxy)-3-fluoropiperidin-1-yl)-6-(2-hydroxyethyl)-3-methyl-6,7-dihydro-5H-pyrrolo[3,4-b]pyridin-5-one] | 84
6 | CCc1cc2c(nc1N1CCC(Oc3ccc4c(c3)COC4)CC1)CN(CCO)C2=O [Example 258, 2-(4-((1,3-dihydro-2-benzofuran-5-yl)oxy)piperidin-1-yl)-3-ethyl-6-(2-hydroxyethyl)-6,7-dihydro-5H-pyrrolo[3,4-b]pyridin-5-one] | 126
7 | COc1ccc(OC2CCN(c3nc4c(cc3C)C(=O)N(Cc3ccncc3)C4)CC2)cn1 [Example 259, 2-(4-((6-methoxypyridin-3-yl)oxy)piperidin-1-yl)-3-methyl-6-(pyridin-4-ylmethyl)-6,7-dihydro-5H-pyrrolo[3,4-b]pyridin-5-one] | 87
8 | Cc1c(N2CCC(OCC3(C)CC3(F)F)CC2)nc2c(c1C)C(=O)N(CCO)C2 (stereo not shown) [Example 259A, 2-(4-((2,2-difluoro-1-methylcyclopropyl)methoxy)piperidin-1-yl)-6-(2-hydroxyethyl)-3,4-dimethyl-6,7-dihydro-5H-pyrrolo[3,4-b]pyridin-5-one] | 117
9 | COC(=O)CN1Cc2nc(N3CCC(Oc4ccc(OC)nc4)CC3)c(C)cc2C1=O [Example 260, methyl 2-(2-(4-((6-methoxypyridin-3-yl)oxy)piperidin-1-yl)-3-methyl-5-oxo-5,7-dihydro-6H-pyrrolo[3,4-b]pyridin-6-yl)acetate] | 141
10 | COCCN1Cc2nc(N3CCC(Oc4ccc5c(c4)COC5)CC3)c(C)c(C)c2C1=O [Example 260A, 2-(4-((1,3-dihydro-2-benzofuran-5-yl)oxy)piperidin-1-yl)-6-(2-methoxyethyl)-3,4-dimethyl-6,7-dihydro-5H-pyrrolo[3,4-b]pyridin-5-one] | 43
11 | Cc1c(N2CC[C@@H](Oc3ccc4c(c3)COC4)[C@@H](F)C2)nc2c(c1C)C(=O)N(CCO)C2 [Example 261, 2-((3S,4R)-4-((1,3-dihydro-2-benzofuran-5-yl)oxy)-3-fluoropiperidin-1-yl)-6-(2-hydroxyethyl)-3,4-dimethyl-6,7-dihydro-5H-pyrrolo[3,4-b]pyridin-5-one] | 39
12 | Cc1cc2c(nc1N1CC[C@@H](Oc3ccc(F)cc3)[C@@H](F)C1)CN(CCO)C2=O [Example 262, 2-((3S,4R)-3-fluoro-4-(4-fluorophenoxy)piperidin-1-yl)-6-(2-hydroxyethyl)-3-methyl-6,7-dihydro-5H-pyrrolo[3,4-b]pyridin-5-one] | 43
13 | Cc1cc2c(nc1N1CCC(Oc3ccc4c(c3)COC4)CC1)CN(CCO)C2=O [Example 263, 2-(4-((1,3-dihydro-2-benzofuran-5-yl)oxy)piperidin-1-yl)-6-(2-hydroxyethyl)-3-methyl-6,7-dihydro-5H-pyrrolo[3,4-b]pyridin-5-one] | 57
14 | COCCN1Cc2nc(N3CCC(Oc4ccc5c(c4)COC5)CC3)c(C)cc2C1=O [Example 263A, 2-(4-((1,3-dihydro-2-benzofuran-5-yl)oxy)piperidin-1-yl)-6-(2-methoxyethyl)-3-methyl-6,7-dihydro-5H-pyrrolo[3,4-b]pyridin-5-one] | 40
15 | Cc1cc2c(nc1N1CCC(Oc3ccc(F)cc3)CC1)CN(CCO)C2=O [Example 264, 2-(4-(4-Fluorophenoxy)piperidin-1-yl)-6-(2-hydroxyethyl)-3-methyl-6,7-dihydro-5H-pyrrolo[3,4-b]pyridin-5-one] | 36
16 | Cc1c(N2CCC(Oc3ccc4c(c3)COC4)CC2)nc2c(c1C)C(=O)N(CCO)C2 [Example 264A, 2-(4-((1,3-Dihydro-2-benzofuran-5-yl)oxy)piperidin-1-yl)-6-(2-hydroxyethyl)-3,4-dimethyl-6,7-dihydro-5H-pyrrolo[3,4-b]pyridin-5-one] | 38
17 | Cc1c(N2CCC(Oc3ccc4c(c3)C[C@H](O)C4)CC2)nc2c(c1C)C(=O)N(CCO)C2 [Example 264D, (R)-2-(4-((2-hydroxy-2,3-dihydro-1H-inden-5-yl)oxy)piperidin-1-yl)-6-(2-hydroxyethyl)-3,4-dimethyl-6,7-dihydro-5H-pyrrolo[3,4-b]pyridin-5-one] | 79
18 | Cc1c(N2CCC(Oc3ccc4c(c3)C[C@@H](O)C4)CC2)nc2c(c1C)C(=O)N(CCO)C2 [Example 264E, (S)-2-(4-((2-hydroxy-2,3-dihydro-1H-inden-5-yl)oxy)piperidin-1-yl)-6-(2-hydroxyethyl)-3,4-dimethyl-6,7-dihydro-5H-pyrrolo[3,4-b]pyridin-5-one] | 125
19 | Cc1c(N2CCC(Oc3ccccc3)CC2)nc2c(c1C)C(=O)N(CCO)C2 [Example 265, 6-(2-hydroxyethyl)-3,4-dimethyl-2-(4-phenoxypiperidin-1-yl)-6,7-dihydro-5H-pyrrolo[3,4-b]pyridin-5-one] | 46
20 | Cc1c(N2CCC(Oc3ccc(F)cc3)CC2)nc2c(c1C)C(=O)N(CCO)C2 [Example 266, 2-(4-(4-fluorophenoxy)piperidin-1-yl)-6-(2-hydroxyethyl)-3,4-dimethyl-6,7-dihydro-5H-pyrrolo[3,4-b]pyridin-5-one] | 105

The remaining lines, values ahead:

Row | EC50 [nM] | Structure (SMILES)
21 | 100 | CCc1cc2c(nc1N1CCC(Oc3ccc4c(c3)OCC4)CC1)CN(CCO)C2=O [Example 265A, 2-(4-((2,3-dihydrobenzofuran-6-yl)oxy)piperidin-1-yl)-3-ethyl-6-(2-hydroxyethyl)-6,7-dihydro-5H-pyrrolo[3,4-b]pyridin-5-one]
22 | 123 | Cc1c(N2CCC(OC[C@@]3(C)CC3(F)F)CC2)nc2c(c1C)C(=O)N(CCO)C2 [Example 265B, (R)-2-(4-((2,2-difluoro-1-methylcyclopropyl)methoxy)piperidin-1-yl)-6-(2-hydroxyethyl)-3,4-dimethyl-6,7-dihydro-5H-pyrrolo[3,4-b]pyridin-5-one]
23 | 41 | Cc1c(N2CCC(OC[C@]3(C)CC3(F)F)CC2)nc2c(c1C)C(=O)N(CCO)C2 [Example 265C, (S)-2-(4-((2,2-difluoro-1-methylcyclopropyl)methoxy)piperidin-1-yl)-6-(2-hydroxyethyl)-3,4-dimethyl-6,7-dihydro-5H-pyrrolo[3,4-b]pyridin-5-one]
24 | 65 | Cc1c(N2CCC(Oc3ccc4c(cnn4C)c3)CC2)nc2c(c1C)C(=O)N(CCO)C2 [Example 265D, 6-(2-hydroxyethyl)-3,4-dimethyl-2-(4-((1-methyl-1H-indazol-5-yl)oxy)piperidin-1-yl)-6,7-dihydro-5H-pyrrolo[3,4-b]pyridin-5-one]
25 | 46 | Cc1c(N2CCC(Oc3ccc4c(c3)CCOC4)CC2)nc2c(c1C)C(=O)N(CCO)C2 [Example 265F, 6-(2-hydroxyethyl)-2-(4-(isochroman-6-yloxy)piperidin-1-yl)-3,4-dimethyl-6,7-dihydro-5H-pyrrolo[3,4-b]pyridin-5-one]
26 | 44 | Cc1c(N2CCC(Oc3ccc4c(c3)OCC4)CC2)nc2c(c1C)C(=O)N(CCO)C2 [Example 266A, 2-(4-((2,3-dihydrobenzofuran-6-yl)oxy)piperidin-1-yl)-6-(2-hydroxyethyl)-3,4-dimethyl-6,7-dihydro-5H-pyrrolo[3,4-b]pyridin-5-one]
27 | 53 | Cc1c(N2CCC(Oc3ccc4c(c3)COC4)CC2)nc2c(c1C)C(=O)N(CC(=O)O)C2 [Example 266B, 2-(2-(4-((1,3-dihydro-2-benzofuran-5-yl)oxy)piperidin-1-yl)-3,4-dimethyl-5-oxo-5,7-dihydro-6H-pyrrolo[3,4-b]pyridin-6-yl)acetic acid]
28 | 64 | Cc1c(N2CCC(Oc3ccc4c(c3)COC4)CC2)nc2c(c1C)C(=O)N([C@H](C)CO)C2 [Example 266C, (R)-2-(4-((1,3-dihydro-2-benzofuran-5-yl)oxy)piperidin-1-yl)-6-(1-hydroxypropan-2-yl)-3,4-dimethyl-6,7-dihydro-5H-pyrrolo[3,4-b]pyridin-5-one]

From patent publication US10329289B2, “6,7-dihydro-5H-pyrrolo[3,4-B]pyridin-5-one allosteric modulators of the M4 muscarinic acetylcholine receptor” (Merck Sharp & Dohme Corp., priority 2015, dated 2019)
